Earlier results in publication PMC6311893, “Computational prediction of plasma protein binding of cyclic peptides from small molecule experimental data using sparse modeling techniques” (BMC Bioinformatics, 2018).
Where a name gives a salt, the structure may show the parent alone. Read-outs that look alike come from different tables or passages of the source. Non-standard residues stand in square brackets, D forms with d. Residues, ends and D or L forms follow the SMILES beside them. dPhe(4-Cl) = N[C@H](Cc1ccc(Cl)cc1)C(=O)O; d2Nal = N[C@H](Cc1ccc2ccccc2c1)C(=O)O; dCit = NC(=O)NCCC[C@@H](N)C(=O)O; d3Pal = N[C@H](Cc1cccnc1)C(=O)O

Test system: plasma protein
Conditions: cited from earlier work
[1] = fraction bound to plasma protein, small molecule dataset, sheet 1-SM (Set Dte = test, Dtr = training), ref Ingle et al.
[2] = fraction bound to plasma protein, small molecule dataset, sheet 1-SM, Set Dtr, ref Ingle et al.

SMILES	PPB (fb) [2]	other results
Oc1ccc2c(c1)[C@@]13CCCC[C@@]1(O)[C@@H](C2)N(CC1CCC1)CC3 [Butorphanol]	–	PPB (fb) (plasma): 0.81
CC[C@@]1(O)C(=O)OCc2c1cc1n(c2=O)Cc2cc3ccccc3nc2-1 [Camptothecin]	–	PPB (fb) [1]: 0.98
CCOc1nc2cccc(C(=O)OC(C)OC(=O)OC3CCCCC3)c2n1Cc1ccc(-c2ccccc2-c2nnn[nH]2)cc1 (stereo not drawn) [Candesartan cilexetil]	–	PPB (fb) [1]: 0.99
O=NN(CCCl)C(=O)NCCCl [Carmustine (BCNU)]	–	PPB (fb) (plasma): 0.77
CC(C(=O)O)c1ccc2c(c1)[nH]c1ccc(Cl)cc12 (stereo not drawn) [Carprofen]	–	PPB (fb) [1]: 0.99
NC(=O)OC[C@@H]1[C@H](NC(=O)/C(=N\OCC(=O)O)c2csc(N)n2)C(=O)N1S(=O)(=O)O [Carumonam]	0.28	–
COc1ccccc1OCCNCC(O)COc1cccc2[nH]c3ccccc3c12 (stereo not drawn) [Carvedilol]	0.96	–
Cn1nnnc1SCC1=C(C(=O)O)N2C(=O)[C@@H](NC(=O)[C@H](O)c3ccccc3)[C@H]2SC1 [Cefamandole]	0.74	–
N[C@@H](C(=O)N[C@@H]1C(=O)N2C(C(=O)O)=C(CSc3c[nH]nn3)CS[C@H]12)c1ccc(O)cc1 [Cefatrizine]	0.59	–
Cc1nnc(SCC2=C(C(=O)O)N3C(=O)[C@@H](NC(=O)Cn4cnnn4)[C@H]3SC2)s1 [Cefazolin]	–	PPB (fb) [1]: 0.83
CO/N=C(\C(=O)N[C@@H]1C(=O)N2C(C(=O)O)=C(C)CS[C@H]12)c1csc(N)n1 [Cefetamet]	0.22	–
NCc1ccccc1CC(=O)N[C@@H]1C(=O)N2C(C(=O)O)=C(CSc3nnnn3CC(=O)O)CS[C@H]12 [Ceforanide]	0.81	–
CO/N=C(\C(=O)N[C@@H]1C(=O)N2C(C(=O)O)=C(COC(C)=O)CS[C@H]12)c1csc(N)n1 [Cefotaxime]	–	PPB (fb) [1]: 0.38
CO[C@@]1(NC(=O)C2SC(=C(C(N)=O)C(=O)O)S2)C(=O)N2C(C(=O)O)=C(CSc3nnnn3C)CS[C@@H]21 (stereo partly drawn) [Cefotetan]	0.84	–
C/C=C/C1=C(C(=O)O)N2C(=O)C(NC(=O)C(N)c3ccc(O)cc3)C2SC1 (stereo not drawn) [Cefprozil]	0.38	–
CO/N=C(\C(=O)N[C@@H]1C(=O)N2C(C(=O)O)=CCS[C@H]12)c1csc(N)n1 [Ceftizoxime]	0.28	–
Nc1nc(/C(=N/O)C(=O)N[C@@H]2C(=O)N3C(C(=O)O)=C(/C=C4\CCN([C@@H]5CCNC5)C4=O)CS[C@H]23)ns1 [Ceftobiprole]	0.38	–
CO/N=C(\C(=O)N[C@@H]1C(=O)N2C(C(=O)O)=C(COC(N)=O)CS[C@H]12)c1ccco1 [Cefuroxime]	0.32	–
CC(=O)OCC1=C(C(=O)O)N2C(=O)[C@@H](NC(=O)Cc3cccs3)[C@H]2SC1 [Cephalothin]	0.73	–
CC(=O)OCC1=C(C(=O)O)N2C(=O)[C@@H](NC(=O)CSc3ccncc3)[C@H]2SC1 [Cephapirin]	0.53	–
O=C(OCCN1CCCCCC1)C(c1ccsc1)C1CCCCC1 (stereo not drawn) [Cetiedil]	–	PPB (fb) [1]: 0.74
CC(=O)N[C@H](Cc1ccc2ccccc2c1)C(=O)N[C@H](Cc1ccc(Cl)cc1)C(=O)N[C@H](Cc1cccnc1)C(=O)N[C@@H](CO)C(=O)N[C@@H](Cc1ccc(O)cc1)C(=O)N[C@H](CCCNC(N)=O)C(=O)N[C@@H](CC(C)C)C(=O)N[C@@H](CCCNC(=N)N)C(=O)N1CCC[C@H]1C(=O)N[C@H](C)C(N)=O [Cetrorelix] (Ac-[d2Nal][dPhe(4-Cl)][d3Pal]SY[dCit]LRP[dA]-NH2)	–	PPB (fb) (human, plasma): 0.86
O=C(O)CCCc1ccc(N(CCCl)CCCl)cc1 [Chlorambucil]	–	PPB (fb) (plasma): 0.99
O=C(N[C@H](CO)[C@H](O)c1ccc([N+](=O)[O-])cc1)C(Cl)Cl [Chloramphenicol]	0.61	–
Cc1ncsc1CCCl [Chlormethiazole]	–	PPB (fb) (plasma): 0.64
CCN(CC)CCCC(C)Nc1ccnc2cc(Cl)ccc12 (stereo not drawn) [Chloroquine]	0.58	–
CN(C)CCCN1c2ccccc2Sc2ccc(Cl)cc21 [Chlorpromazine]	0.96	–

SMILES	PPB (fb) [2]	other results
CCCNC(=O)NS(=O)(=O)c1ccc(Cl)cc1 [Chlorpropamide]	0.96	–
NS(=O)(=O)c1cc(C2(O)NC(=O)c3ccccc32)ccc1Cl (stereo not drawn) [Chlorthalidone]	0.75	–
Nc1ccn(C[C@@H](CO)OCP(=O)(O)O)c(=O)n1 [Cidofovir]	0.02	–
CC1(C)C[C@@H]1C(=O)N/C(=C\CCCCSC[C@H](N)C(=O)O)C(=O)O [Cilastatin]	–	PPB (fb) (plasma): 0.37
COc1ccc([C@]2(C#N)CC[C@@H](C(=O)O)CC2)cc1OC1CCCC1 [Cilomilast]	0.99	–
CN/C(=N/CCSCc1nc[nH]c1C)NC#N [Cimetidine]	0.2	–
C[C@@H](NCCCc1cccc(C(F)(F)F)c1)c1cccc2ccccc12 [Cinacalcet hydrochloride]	–	PPB (fb) [1]: 0.95
COc1ccc(C[C@@H]2c3cc(OC)c(OC)cc3CC[N@+]2(C)CCC(=O)OCCCCCOC(=O)CC[N@@+]2(C)CCc3cc(OC)c(OC)cc3[C@H]2Cc2ccc(OC)c(OC)c2)cc1OC [Cisatracurium]	0.38	–
CN(C)CCCC1(c2ccc(F)cc2)OCc2cc(C#N)ccc21 (stereo not drawn) [Citalopram]	0.68	–
Nc1nc(Cl)nc2c1ncn2[C@H]1C[C@H](O)[C@@H](CO)O1 [Cladribine]	0.2	–
O=C(O)[C@H]1/C(=C/CO)O[C@@H]2CC(=O)N21 [Clavulanic Acid]	0.09	–
NC1CCN(c2c(F)cc3c(=O)c(C(=O)O)cn(C4CC4)c3c2Cl)C1 (stereo not drawn) [Clinafloxacin]	–	PPB (fb) [1]: 0.04
COc1ccc2c(C(=O)c3ccc(Cl)cc3)c(C)n(CC(=O)O)c2c1 [Clometacin]	–	PPB (fb) (plasma): 0.99
O=C1CN=C(c2ccccc2Cl)c2cc([N+](=O)[O-])ccc2N1 [Clonazepam]	–	PPB (fb) (plasma): 0.85
Clc1cccc(Cl)c1N=C1NCCN1 [Clonidine]	0.34	–
CN1CCN(C2=Nc3cc(Cl)ccc3Nc3ccccc32)CC1 [Clozapine]	0.95	–
CCOC(=O)[C@@H]1C2CCC(C[C@@H]1OC(=O)c1ccccc1)N2C (stereo partly drawn) [Cocaethylene]	–	PPB (fb) (plasma): 0.36
COC(=O)[C@H]1[C@@H](OC(=O)c2ccccc2)C[C@@H]2CC[C@H]1N2C [Cocaine]	–	PPB (fb) (plasma): 0.89
COc1ccc2c3c1O[C@H]1[C@@H](O)C=C[C@H]4[C@@H](C2)N(C)CC[C@@]341 [Codeine]	–	PPB (fb) (plasma): 0.21
COc1ccc(/C=C\c2cc(OC)c(OC)c(OC)c2)cc1OP(=O)(O)O [Combretastatin A4 phosphate]	–	PPB (fb): 0.77
Cc1nc2c([nH]1)-c1ccccc1N(C(=O)c1ccc(NC(=O)c3ccccc3-c3ccccc3)cc1)CC2 [Conivaptan]	0.99	–
O=P1(N(CCCl)CCCl)NCCCO1 (stereo not drawn) [Cyclophosphamide]	–	PPB (fb) (plasma): 0.15
CC/C=C\C/C=C\C/C=C\C/C=C\C/C=C\C/C=C/CCC(=O)O[C@@H](C(=O)O[C@H]1C[C@@]2(O)[C@@H](OC(=O)c3ccccc3)C3[C@](C)(C(=O)[C@H](OC(C)=O)C(=C1C)C2(C)C)[C@@H](O)C[C@H]1OC[C@@]31OC(C)=O)[C@@H](NC(=O)c1ccccc1)c1ccccc1 (stereo partly drawn) [DHA Paclitaxel]	–	PPB (fb) (plasma): 0.9962
CN(C)/N=N/c1[nH]cnc1C(N)=O [Dacarbazine]	0.02	–
Nc1ccc(S(=O)(=O)c2ccc(N)cc2)cc1 [Dapsone]	0.75	–
Nc1ncn([C@H]2C[C@H](O)[C@@H](CO)O2)c(=O)n1 [Decitabine]	–	PPB (fb) [1]: 0
O=C1CN=C(c2ccccc2Cl)c2cc(Cl)ccc2N1 [Delorazepam (Chlordesmethyldiazepam)]	–	PPB (fb) (plasma): 0.95
